Experimental data from patent US20250270172A1, “Pyrimidine Derivatives As Modulators of the 5-HT2A Serotonin Receptor Useful For The Treatment of Disorders Related Thereto” (Arena Pharmaceuticals, Inc., priority 2020, published 2025).

Biological target: 5-HT2A (Homo sapiens (Human), UniProt P28223)
Assay: Radioligand binding assay, [^3H]5-HT competition, 5-HT2A
Details: [^3H]5-HT radioligand, membranes of HEK293 cells expressing recombinant 5-HT2A; Ki from IC50 by Cheng-Prusoff; read-out: 5-HT2A serotonin binding Ki value

Chain of 5-HT2A (P28223 whole entry): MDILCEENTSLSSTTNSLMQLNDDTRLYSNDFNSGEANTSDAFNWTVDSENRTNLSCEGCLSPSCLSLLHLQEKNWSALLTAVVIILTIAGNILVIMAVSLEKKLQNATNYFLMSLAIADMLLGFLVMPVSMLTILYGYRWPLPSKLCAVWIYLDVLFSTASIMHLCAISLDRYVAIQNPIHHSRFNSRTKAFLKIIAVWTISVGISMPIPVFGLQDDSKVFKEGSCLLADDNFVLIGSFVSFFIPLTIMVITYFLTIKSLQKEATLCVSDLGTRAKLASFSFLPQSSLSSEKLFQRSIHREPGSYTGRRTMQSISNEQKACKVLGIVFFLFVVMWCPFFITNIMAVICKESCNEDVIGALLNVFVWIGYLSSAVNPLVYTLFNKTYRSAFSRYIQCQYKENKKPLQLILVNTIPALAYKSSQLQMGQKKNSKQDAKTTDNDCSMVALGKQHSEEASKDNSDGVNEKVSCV

| Structure (SMILES) | Ki [nM] |
| --- | --- |
| Cc1ncnc(C)c1-c1cc(NC(=O)Cc2ccc(F)cn2)ccc1OCCN1CCCC1 [Compound 278, N-(3-(4,6-dimethylpyrimidin-5-yl)-4-(2-(pyrrolidin-1-yl)ethoxy)phenyl)-2-(5-fluoropyridin-2-yl)acetamide] | 32.6 |
| Cc1ncnc(C)c1-c1cc(N(C)C(=O)C2CC2)ccc1OCCN1CCCC1 [Compound 279, N-[3-(4,6-dimethylpyrimidin-5-yl)-4-(2-pyrrolidin-1-ylethoxy)phenyl]-N-methyl-cyclopropanecarboxamide] | 65800 |
| Cc1ncnc(C)c1-c1cc(N(C)C(=O)c2ccnn2C)ccc1OCCN1CCCC1 [Compound 280, N-[3-(4,6-dimethylpyrimidin-5-yl)-4-(2-pyrrolidin-1-ylethoxy)phenyl]-N,2-dimethyl-pyrazole-3-carboxamide] | 65800 |
| Cc1ncnc(C)c1-c1cc(NC(=O)CCF)ccc1OCCN1CCCC1 [Compound 281, N-[3-(4,6-dimethylpyrimidin-5-yl)-4-(2-pyrrolidin-1-ylethoxy)phenyl]-3-fluoro-propanamide] | 30.6 |
| Cc1ncnc(C)c1-c1cc(NC(=O)CCCF)ccc1OCCN1CCCC1 [Compound 282, N-[3-(4,6-dimethylpyrimidin-5-yl)-4-(2-pyrrolidin-1-ylethoxy)phenyl]-4-fluoro-butanamide] | 8.84 |
| Cc1ncnc(C)c1-c1cc(NC(=O)C2(O)CC2)ccc1OCCN1CCCC1 [Compound 283, N-[3-(4,6-dimethylpyrimidin-5-yl)-4-(2-pyrrolidin-1-ylethoxy)phenyl]-1-hydroxy-cyclopropanecarboxamide] | 24 |
| COC(C)(C)C(=O)Nc1ccc(OCCN2CCCC2)c(-c2c(C)ncnc2C)c1 [Compound 284, N-[3-(4,6-dimethylpyrimidin-5-yl)-4-(2-pyrrolidin-1-ylethoxy)phenyl]-2-methoxy-2-methyl-propanamide] | 87.5 |
| CCOC1(C(=O)Nc2ccc(OCCN3CCCC3)c(-c3c(C)ncnc3C)c2)CC1 [Compound 285, N-[3-(4,6-dimethylpyrimidin-5-yl)-4-(2-pyrrolidin-1-ylethoxy)phenyl]-1-ethoxy-cyclopropanecarboxamide] | 33.4 |
| COC1(C(=O)Nc2ccc(OCCN3CCCC3)c(-c3c(C)ncnc3C)c2)CCC1 [Compound 286, N-[3-(4,6-dimethylpyrimidin-5-yl)-4-(2-pyrrolidin-1-ylethoxy)phenyl]-1-methoxy-cyclobutanecarboxamide] | 10.1 |
| Cc1ncnc(C)c1-c1cc(NC(=O)CN2CCCC2)ccc1OCCN1CCCC1 [Compound 287, N-[3-(4,6-dimethylpyrimidin-5-yl)-4-(2-pyrrolidin-1-ylethoxy)phenyl]-2-pyrrolidin-1-yl-acetamide] | 3250 |
| Cc1ncnc(C)c1-c1cc(NC(=O)CNC2CC2)ccc1OCCN1CCCC1 [Compound 288, 2-(Cyclopropylamino)-N-[3-(4,6-dimethylpyrimidin-5-yl)-4-(2-pyrrolidin-1-ylethoxy)phenyl]acetamide] | 81.2 |
| Cc1ncnc(C)c1-c1cc(NC(=O)CNC2CCCC2)ccc1OCCN1CCCC1 [Compound 289, 2-(cyclopentylamino)-N-(3-(4,6-dimethylpyrimidin-5-yl)-4-(2-(pyrrolidin-1-yl)ethoxy)phenyl)acetamide] | 123 |
| Cc1cnn(C)c1C(=O)Nc1ccc(OCCN2CCCC2)c(-c2c(C)ncnc2C)c1 [Compound 292, N-(3-(4,6-dimethylpyrimidin-5-yl)-4-(2-(pyrrolidin-1-yl)ethoxy)phenyl)-1,4-dimethyl-1H-pyrazole-5-carboxamide] | 17.6 |
| Cc1ncnc(C)c1-c1cc(NC(=O)Cc2nccs2)ccc1OCCN1CCCC1 [Compound 294, N-(3-(4,6-dimethylpyrimidin-5-yl)-4-(2-(pyrrolidin-1-yl)ethoxy)phenyl)-2-(thiazol-2-yl)acetamide] | 17.9 |
| Cc1ncnc(C)c1-c1cc(NC(=O)c2c(F)ccn2C)ccc1OCCN1CCCC1 [Compound 295, N-[3-(4,6-dimethylpyrimidin-5-yl)-4-(2-pyrrolidin-1-ylethoxy)phenyl]-3-fluoro-1-methyl-pyrrole-2-carboxamide] | 2.01 |
| Cc1ncnc(C)c1-c1cc(NC(=O)C2CC(F)(F)C2)ccc1OCCN1CCCC1 [Compound 296, N-(3-(4,6-dimethylpyrimidin-5-yl)-4-(2-(pyrrolidin-1-yl)ethoxy)phenyl)-3,3-difluorocyclobutane-1-carboxamide] | 4.49 |
| Cc1ncnc(C)c1-c1cc(NC(=O)c2cccc(F)c2)ccc1OCCN1CCCC1 [Compound 297, N-(3-(4,6-dimethylpyrimidin-5-yl)-4-(2-(pyrrolidin-1-yl)ethoxy)phenyl)-3-fluorobenzamide] | 2.71 |
| Cc1ncnc(C)c1-c1cc(NC(=O)c2ccccc2F)ccc1OCCN1CCCC1 [Compound 298, N-(3-(4,6-dimethylpyrimidin-5-yl)-4-(2-(pyrrolidin-1-yl)ethoxy)phenyl)-2-fluorobenzamide] | 16.9 |
| Cc1ccccc1C(=O)Nc1ccc(OCCN2CCCC2)c(-c2c(C)ncnc2C)c1 [Compound 299, N-(3-(4,6-dimethylpyrimidin-5-yl)-4-(2-(pyrrolidin-1-yl)ethoxy)phenyl)-2-methylbenzamide] | 20.6 |
| Cc1cccc(C(=O)Nc2ccc(OCCN3CCCC3)c(-c3c(C)ncnc3C)c2)c1 [Compound 300, N-(3-(4,6-dimethylpyrimidin-5-yl)-4-(2-(pyrrolidin-1-yl)ethoxy)phenyl)-3-methylbenzamide] | 1.48 |
| Cc1ccc(C(=O)Nc2ccc(OCCN3CCCC3)c(-c3c(C)ncnc3C)c2)cc1 [Compound 301, N-(3-(4,6-dimethylpyrimidin-5-yl)-4-(2-(pyrrolidin-1-yl)ethoxy)phenyl)-4-methylbenzamide] | 3.4 |
| Cc1ncnc(C)c1-c1cc(NC(=O)[C@H]2C[C@@H](F)C2)ccc1OCCN1CCCC1 [Compound 302, (1s,3s)-N-(3-(4,6-dimethylpyrimidin-5-yl)-4-(2-(pyrrolidin-1-yl)ethoxy)phenyl)-3-fluorocyclobutane-1-carboxamide] | 3.18 |
| Cc1ncnc(C)c1-c1cc(NC(=O)[C@H]2C[C@H](F)C2)ccc1OCCN1CCCC1 [Compound 303, (1r,3r)-N-(3-(4,6-dimethylpyrimidin-5-yl)-4-(2-(pyrrolidin-1-yl)ethoxy)phenyl)-3-fluorocyclobutane-1-carboxamide] | 9.36 |
| COc1cccc(CC(=O)Nc2ccc(OCCN3CCC3)c(-c3c(C)ncnc3C)c2)c1 [Compound 311, N-(4-(2-(azetidin-1-yl)ethoxy)-3-(4,6-dimethylpyrimidin-5-yl)phenyl)-2-(3-methoxyphenyl)acetamide] | 3.01 |
| COc1ccc(CC(=O)Nc2ccc(OCCN3CCC3)c(-c3c(C)ncnc3C)c2)cc1 [Compound 313, N-(4-(2-(azetidin-1-yl)ethoxy)-3-(4,6-dimethylpyrimidin-5-yl)phenyl)-2-(4-methoxyphenyl)acetamide] | 1.7 |
| Cc1ncnc(C)c1-c1cc(NC(=O)Cc2ccc(F)cn2)ccc1OCCN1CCC1 [Compound 315, N-(4-(2-(azetidin-1-yl)ethoxy)-3-(4,6-dimethylpyrimidin-5-yl)phenyl)-2-(5-fluoropyridin-2-yl)acetamide] | 12.6 |
| CCOC1CC1C(=O)Nc1ccc(OCCN2CCC2)c(-c2c(C)ncnc2C)c1 (stereo not drawn) [Compound 317, N-(4-(2-(azetidin-1-yl)ethoxy)-3-(4,6-dimethylpyrimidin-5-yl)phenyl)-2-ethoxycyclopropane-1-carboxamide] | 96.3 |
